Holding throughout (format): cell-based
Assay [1] deals with T1, AgORco+AgOR48 (Anopheles gambiae, UniProt Q7QCC7).
T1 construct: expressed in transfected cells
T1 sequence (Q7QCC7 1-478): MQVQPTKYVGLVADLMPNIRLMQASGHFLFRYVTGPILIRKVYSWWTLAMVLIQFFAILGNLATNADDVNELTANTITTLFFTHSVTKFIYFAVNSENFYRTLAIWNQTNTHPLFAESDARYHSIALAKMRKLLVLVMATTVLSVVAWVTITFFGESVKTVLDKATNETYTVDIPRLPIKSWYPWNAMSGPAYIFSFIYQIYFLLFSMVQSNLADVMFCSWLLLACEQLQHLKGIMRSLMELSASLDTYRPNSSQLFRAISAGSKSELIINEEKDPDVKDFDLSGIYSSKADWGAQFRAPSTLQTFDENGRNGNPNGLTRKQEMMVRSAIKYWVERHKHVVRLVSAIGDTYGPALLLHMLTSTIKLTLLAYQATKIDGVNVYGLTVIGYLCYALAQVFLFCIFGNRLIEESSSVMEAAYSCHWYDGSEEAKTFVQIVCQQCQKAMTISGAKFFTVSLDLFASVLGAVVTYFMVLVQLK
Briefly: Ca2+ imaging, HEK cells expressing AgORco+AgOR48. The following applies: for Orco + 48 Agonist EC50 (given only relative to VUAA1): comparison with VUAA1 in words; for Orco + 48 Agonist % value Of VUAA1: relative to VUAA1; for Orco + 48 Agonist EC50 (relative to VUAA1): stated in words relative to VUAA1. An excerpt: (§1) For transient transfections, ORs were cloned into pCl (Promega) and transfected into Flp-In™ T-REx™293 cell lines (Invitrogen) with Fu GENE6 (Roche). For the creation of stable cell lines, a cell culture expression vector capable of expressing Orco in conjunction with a conventional OR, pcDNA5/FRT/TO (Invitrogen) was modified to create two individual expression cassettes each under the control of a separate CMV/Tet02 promoter and a BGH poly-adenylation signal. Cells (as above) were transfected with the modified pcDNA5 plasmid along with POG44 (a Flp recombinase expression plasmid) to facilitate site-specific recombination. Stable cell lines were selected using Hygromycin B (Invitrogen). Cells were maintained in DMEM (Invitrogen) supplemented with 10% Tetracycline-free FBS (HyClone) and 15 ng/ml Blasticidin. For fluorometric Ca2+ measurements, stable lines expressing ORs of interest were seeded at 20,000 cells/well in black wall, poly-lysine coated 384-well cell culture plates (Greiner) and treated with […] tetracycline (Sigma) overnight to induce OR expression. Cells were dye-loaded with 1.8 uM Fluo-4 AM (Molecular Probes), 2.5 mM Probenecid (Molecular Probes) in assay buffer (20 mM HEPES, IX HBSS) for 45 minutes at 37° C. in 5% CO2 prior to each assay. Ca^2+ mobilization was assayed in an FDSS6000 (Hamamatsu). Baseline readings were taken for 20 s before automated addition of compound previously diluted in DMSO and assay buffer. Ratios were described as Maximum/Minimum response and each response was normalized to the maximum responder.
The ability of VUAA1 and its analogs to agonize representative ORco proteins from dipteran (Anopheles gambiae, AgORco), lepidopteran (Heliothis virescens, HvORco) and hymenopteran (Harpegnathos saltator, HsORco) orders was tested. […] Furthermore, the hierarchy of VUAA series potency was the same, irrespective of whether AgORco was co-expressed with AgOR65 or AgOR48 tuning ORs (FIG. 45). Without wishing to be bound by a particular theory, odorant ligands are thought to activate the complex via interaction with the tuning ORx and thereby affect ORco/ORx channel properties. […] These findings indicate VUAA-class OR co-modulators are viable compounds for further development as broad-spectrum insect control strategies, and VUAA4 can provide an advance in the pharmacological profile of VUAA-based compounds.

Assay [2] deals with T2, AgORco+AgOR10 (Anopheles gambiae, UniProt Q7QCC7).
T2 construct: expressed in transfected cells
T2 sequence (Q7QCC7 1-478): T1 sequence (Q7QCC7 1-478)
Briefly: Fluo-4 Ca2+ imaging, HEK293 cells expressing Orco+AgOR10. Further details: Orco 10 + Orco Angatonist % Reduction / Orco 10 + Orco Agonist % of control: concentration or dose not given beside the values. The following applies: 10 + Orco; for Orco 10 + Orco Agonist, compared with VUAA1: agonist mode, qualitative, relative to VUAA1; for Orco 10 + Orco Angatonist % Reduction: antagonist mode.
From the text: as §1
As part of an ongoing, cell based calcium imaging screen for novel small-molecule modulators of AgORs that might disrupt olfactory-driven mosquito behaviors (Rinker et al manuscript in preparation), the inventors identified a number of compounds that activated AgOR10+AgORco-expressing human embryonic kidney (HEK293) cells. One of these compounds, (FIG. 3 A) denoted here as VUAA1, elicited activity consistent with allosteric agonism and was pursued for its novel properties. The identity of VUAA1 was verified using high-resolution mass spectrometry (HRMS) as well as ^1H and ^13C NMR. […] As AgORco was the common element among these functional responses, the inventors postulated that VUAA1 was a potential AgORco agonist.

In assay [3] the target is T3, Orco (AgORco) (Anopheles gambiae, UniProt Q7QCC7).
T3 construct: expressed in transfected cells
T3 sequence (Q7QCC7 1-478): T1 sequence (Q7QCC7 1-478)
Put plainly: Fluo-4 Ca2+ imaging, HEK293 cells expressing Orco alone. The note with it: for Emax: HEK293, read-out: Orco Agonist % value Of VUAA1; for EC50: read-out: Orco Agonist EC50.
From the text: as §1

Assay [4] concerns the target T4, AgOrco+AgOR65 (Anopheles gambiae, UniProt Q7QCC7).
T4 construct: expressed in transfected cells
T4 sequence (Q7QCC7 1-478): T1 sequence (Q7QCC7 1-478)
Briefly: Ca2+ imaging, HEK cells expressing AgOrco+AgOR65.
From the text: as §1
For VUAA0, a single methyl from the para position of the aniline ring (compound VUAA0, FIG. 44) in the VUAA1 structure was removed. […] In VUAA0.5, unsaturation was introduced at the para position of the aniline ring (VUAA0.5, FIG. 44). […] In VUAA2, the ethyl group of the aniline ring in VUAA1 was replaced with an isopropyl group (VUAA2, FIG. 44).

Where [5] appears, read: Orco + 48, read-out: Orco + 48 Agonist EC50.
Where [6] appears, read: Orco + 48, agonist, read-out: Orco + 48 Agonist EC50.

Read-outs that look alike come from different tables or passages of the source. Where only a bound is given, the exact number is not on record here.

For `CCn1c(SCC(=O)Nc2ccc(Br)cc2F)nnc1-c1ccncc1`, in assay [1] (Orco + 48), the “Orco + 48 Agonist EC50 (given only relative to VUAA1)” value is “<VUAA1” and the “Orco + 48 Agonist % value Of VUAA1” value is “<VUAA1”.

As usually defined, the EC50 is the concentration needed to bring the measured effect to its halfway point. Take `CCCCCCC1CCCC(=O)O1` [D-undecalactone, reference compound]: the concentration for a half-maximal effect (EC50) in assay [1] (AgORco co-expressed with AgOR48, read-out: EC50) stood at 0.26 µM.

Consider `C=CCn1c(SCC(=O)Nc2ccc(C(C)C)cc2)nnc1-c1ccncc1`, for which, in assay [1] (Orco + 48, agonist), the “Orco + 48 Agonist % value Of VUAA1” value was “<VUAA1” and the “Orco + 48 Agonist EC50 (relative to VUAA1)” value is recorded as “<VUAA1”.

For the molecule `CCc1ccc2c(c1)CCN2C(=O)CSc1nnc(-c2cccnc2)n1CC`, the “Orco 10 + Orco Agonist, compared with VUAA1” value in assay [2] is “>VUAA1”. The EC50 in assay [1] (setting [5]) turned out to be 12.8 µM; in assay [3] (Orco alone), 35 µM. For the same molecule, in assay [3], the Emax amounted to 121%.

For `CCn1c(SCC(=O)N2CCc3cc(Br)ccc32)nnc1-c1cccnc1`, in assay [2], the “Orco 10 + Orco Agonist, compared with VUAA1” value was “>VUAA1” and the “Orco 10 + Orco Angatonist % Reduction” value was determined as 59%. Further, the Emax in assay [3] turned out to be 59%. Further, the EC50 in assay [3] (Orco alone) was 55 µM.

As to `C=Cc1ccc(NC(=O)CSc2nnc(-c3cccnc3)n2CC)cc1` [drawing 376], the “Orco 10 + Orco Agonist, compared with VUAA1” value in assay [2] is given as “<VUAA1”. The EC50 in assay [1] (setting [5]) was determined as 37.4 µM; in assay [3] (Orco alone), 102 µM. Further, the “Orco + 48 Agonist % value Of VUAA1” value in assay [1] (Orco + 48) came out at 77%. In addition, the Emax in assay [3] was 57%.

Turning to `O=C(CSc1nnc(-c2ccncc2)n1C1CC1)Nc1ccc(Br)cc1F`, in assay [1] (Orco + 48, agonist), the “Orco + 48 Agonist % value Of VUAA1” value was “<VUAA1” and the “Orco + 48 Agonist EC50 (relative to VUAA1)” value is reported as “<VUAA1”.

For `C=CCc1ccc(O)c(OC)c1` [eugenol, reference compound], the concentration for a half-maximal effect (EC50) in assay [4] (heteromeric OR channels AgOrco+AgOR65, read-out: EC50) came out at 0.5 µM.

As for `CCCn1c(SCC(=O)Nc2ccc(C(C)C)cc2)nnc1-c1ccncc1`, the EC50 in assay [1] (setting [6]) came out at 19 µM.

For `CCCc1ccc(NC(=O)CSc2nnc(-c3ccncc3)n2CC)cc1`, in assay [1] (Orco + 48), the “Orco + 48 Agonist EC50 (given only relative to VUAA1)” value was “<VUAA1” and the “Orco + 48 Agonist % value Of VUAA1” value is reported as “<VUAA1”.

As to `CCn1c(SCC(=O)Nc2ccc(C)cc2)nnc1-c1cccnc1` [drawing 372], the EC50 in assay [1] (setting [5]) was 996 µM; in assay [3] (Orco alone), 262 µM; in assay [4] (Orco + 65, read-out: Orco + 65 Agonist EC50) it was 335 µM.

Take `CCn1c(SCC(=O)Nc2ccc(C(C)C)cc2)nnc1-c1cc[nH]c1`: in assay [1] (setting [6]), the EC50 was 13.7 µM. Further, in assay [1] (Orco + 48, agonist), the “Orco + 48 Agonist % value Of VUAA1” value was “Poor”.

For `CCCc1ccc(NC(=O)CSc2nnc(-c3cccnc3)n2CC)cc1`, in assay [2], the “Orco 10 + Orco Agonist, compared with VUAA1” value is on record as “<VUAA1”. The values for the EC50 in assay [1] (setting [5]) and in assay [3] (Orco alone) were 19.8 µM and 63 µM, respectively. Also, the Emax in assay [3] amounted to 87%.

As to `CCn1c(SCC(=O)Nc2ccc(Br)cc2F)nnc1-c1cccnc1`, in assay [2], the “Orco 10 + Orco Agonist, compared with VUAA1” value is given as “<VUAA1” and the “Orco 10 + Orco Angatonist % Reduction” value came out at 0.00%. The “Orco Agonist value compared with VUAA1” value in assay [3] (Orco alone, qualitative, relative to VUAA1) is “<VUAA1”. For the same molecule, the EC50 in assay [3] (Orco alone) was determined as 192 µM.

The values are drawn from patent US11484032B2, “Compositions for inhibition of insect sensing” (Vanderbilt University, priority 2011, dated 2022).
